From US8044057B2, “Methods for suppressing an immune response or treating a proliferative disorder” (The United States of America as represented by the …, priority 2003, dated 2011)

Assays:
[1] = system: primary mouse peritoneal macrophages; experiment: LPS-induced cytokine production in peritoneal macrophages; format: cell-based; conditions: LPS 1 μg/ml; 1~100 μM; 24 hours
Procedure: FIG. 7A-F are bar graphs showing that LY303511 inhibits lipopolysaccharide (LPS)—induced cytokine production or STAT1 activity in primary mouse peritoneal macrophages or A549 cells. Wild-type mice from Jackson (Jac) and Taconic (Tac) were used. Peritoneal macrophages were harvested three days after thioglycolate injection. Cells were incubated for three days in 2% FCS RPMI. The supernatant was collected after stimulation with LPS 1 μg/ml with or without LY 303511 (1˜100 μM) or DMSO for 24 hours. Cytokines (interleukin (IL)-12p70, tumor necrosis factor (TNF)-α, interferon (IFN)-γ, MCP-1, IL-10, IL-6) were measured in cell supematants. […] Thus, LY303511 clearly can reduce cytokine expression, and has an anti-inflammatory effect.
Peritoneal macrophages were harvested three days after thioglycolate injection. Cells were incubated for three days in 2% FCS RPM. The supernatant was collected after stimulation with LPS 1 μg/ml with or without LY 303511 (1˜100 μM) or DMSO for 24 hours. Cytokines (interleukin (IL)-12p70, tumor necrosis factor (TNF)-α, interferon (IFN)-γ, monocyte chemoattractant protein (MCP)-1, IL-10, IL-6) were measured in cell supernatants. […] Thus, LY303511 clearly can reduce cytokine expression, and has an anti-inflammatory effect.

AKT [2] = experiment: Western blot of phospho-Akt S473 in A549 cells; format: cell-based, human
Procedure: A549 cells were treated without or with 100 mcM LY303511, 200 ng/ml rapamycin, or 50 nM wortmannin in serum free media for 1 hour before addition of E. coli lipopolysaccharide (LPS), […] and interferon (IFN)-γ, 100 U/ml (LPS/IFN-γ or “L/I”). Cells were homogenized and the indicated proteins (see Table 1) were detected by Western blot. Western blots are from the same experiment, and representative of three experiments.
Measurement of protein phosphorylation: A549 cells were incubated in serum-free medium without or with inhibitors for 1 hour, as indicated, before incubation for 30 minutes with a mixture of LPS, 100 μg/ml (Sigma; St. Louis, Mo.) and IFN-γ, 100 U/ml (Roche; Nutley, N.J.). PASM cells were incubated in serum-free medium without or with inhibitors for 24 h as indicated, before incubation for 30 min with 10% FBS. A549 or PASM cells were washed once with cold PBS and incubated for 15 minutes on ice ih lysis buffer (20 mM Tris pH 8.0, 1% Nonidet P-40, 1 mM EDTA, 5 mM benzamidine, aprotinin, 10 μg/ml, leupeptin, 10 μg/ml, trypsin soybean inhibitor, 1 mM PMSF, 50 mM sodium fluoride, 100 μM sodium orthovanadate, and 1: 100 Sigma phosphatase inhibitor set I containing cantharidin, microcystin LR and bromotetramizole). […] Integrated band densities were quantified using Scion Image beta 3b software.

PASM cells = experiment: BrDU incorporation (in situ ELISA) in PASM cells; format: cell-based, human
Procedure: PASM cells (4,000 per well) were grown in 96-well plates for 24 hours before incubation for 24 hours in medium with (FIG. 4C) or without 10% FBS (FIG. 4D). Cells were then incubated in fresh medium containing 10% FBS, 10 μM BrDU, and 0-100 μM LY303511 without or with rapamycin, 200 or 400 ng/ml, for 24 hours BrDU incorporation was measured by in situ ELISA as per the manufacturer's instructions (BrDU detection kit, Roche). For each experiment, BrDU content of cells incubated with inhibitors was expressed relative to that in cells incubated with 0.1% DMSO control (% control). Mean control (=100%) absorbance for each experiment using cells from different donors was 0.22±0.06 and 0.24±0.06 for FIG. 4C and FIG. 4D, respectively (=100%). Data are means of BrDU values ±SEM from 3 experiments with assays in sextuplet. *p<0.05 vs. DMSO control, or †p<0.05 vs. 10 μM LY303511, by Student's t-test.
Measurement of cell proliferation:. Cell proliferation, or DNA synthesis, was estimated using an in situ 5-bromo-2-deoxy-uridine (BrDU) detection kit as per the manufacturer's instructions (Roche Diagnostics; Nutley, N.J.). […] Cells were fixed, and BrDU was detected using a peroxidase-conjugated anti-BrDU antibody. The measured absorbance data in cells treated with inhibitors were normalized to those treated with DMSO control (% control).

A549 cells = experiment: Propidium iodide flow cytometry cell cycle analysis in A549 cells; format: cell-based, human
AKT [3] = experiment: Western blot of phospho-Akt S473 in PASM cells; format: cell-based, human
Procedure: FIGS. 4A-4D are bar graphs and digital images showing that LY303511 inhibits serum-stimulated phosphorylation of S6K and Akt (FIGS. 4A and 4B), as well as proliferation in PASM cells (FIGS. 4C and 4D). After incubation in serum-free medium for 24 hours, PASM cells were incubated without or with 100 μM LY303511, rapamycin, 200 ng/ml, or 200 nM wortmannin (FIG. 4A), or 0-100 μM LY303511 (FIG. 4B), for 1 hour before the addition of 10% FBS for 30 min and preparation of cell lysates. Equal amounts of protein (20 μg/gel) were separated by SDS-PAGE and transferred to nitrocellulose membranes before immunodetection of phospho-p70 S6 kinase T389 (pS6K) orphospho-Akt S473 (pAkt) by Western blot. Data are from one experiment representative of five.
HPASM cells were purchased from Clonetics and passaged according to the manufacturer's instructions. Cells were plated in 100 mm dishes, and allowed to grow to near confluence before serum starvation for 24 hours. […] Cells were homogenized and the indicated proteins were detected by Western blot.
Measurement of protein phosphorylation: A549 cells were incubated in serum-free medium without or with inhibitors for 1 hour, as indicated, before incubation for 30 minutes with a mixture of LPS, 100 μg/ml (Sigma; St. Louis, Mo.) and IFN-γ, 100 U/ml (Roche; Nutley, N.J.). […] Integrated band densities were quantified using Scion Image beta 3b software.

O=c1cc(N2CCNCC2)oc2c(-c3ccccc3)cccc12 [LY303511, 2-(4-piperazinyl)-8-phenyl-4H-1-benzopyran-4-one]
LPS-induced cytokines (IL-12p70, TNF-α, IFN-γ, MCP-1, IL-10, IL-6) in cell supernatants [1]: dose-dependent reduction of all six cytokines | inhibition of phosphorylation of Akt (AKT [2]; even at 100 mcM): does not inhibit phosphorylation of Akt | phosphorylation of AKT (S473) (AKT [2]; inhibitors 1 hour before LPS/IFN-γ, Western blot): increase phosphorylation of AKT | proliferation (BrDu incorporation) (PASM cells; PASM cells in serum-free medium for 24 h before addition of FBS (FIG. 4D), compared with serum pre-incubation): enhanced in the absence of serum | proliferation (BrDu incorporation) (PASM cells; PASM cells incubated with serum before addition of inhibitors (FIG. 4C)): inhibited in concentration-dependent fashion | proportion of cells in G2/M (A549 cells; 100 μM LY303511, 24 hours): remained unchanged | fraction of cells in S phase (A549 cells; 24 hours, 10 or 100 μM LY303511 without or with rapamycin 200 ng/ml): significantly reduced the fraction of cells in S phase | apoptosis or necrosis (A549 cells; flow cytometric analysis of propidium iodide-stained cells): did not induce apoptosis or necrosis | IC50 (AKT [3]; Homo sapiens, pulmonary artery smooth muscle cells, densitometry, read-out: IC50 for inhibition of Akt phosphorylation): 10 to 100 µM | phosphorylation of AKT (AKT [3]; PASM cells, 10% FBS for 30 minutes): inhibits phosphorylation of AKT, albeit to a lesser extent than phosphorylation of p70 S6 kinase
